Results: PubChem BioAssay AID1259407 (Chemical Carcinogenesis Research Information System (CCRIS), 2018)
The source made the active and inactive calls. No rule for the calls is given here.

Test system: CCRIS mutagenicity, Ames/micronucleus/aberration tests
Test: CCRIS mutagenicity studies
[1] = Test System: AMES SALMONELLA TYPHIMURIUM, Strain/Indicator: TA98, Metabolic Activation: NONE, Method: STANDARD PLATE
[2] = Test System: AMES SALMONELLA TYPHIMURIUM, Strain/Indicator: TA98, Metabolic Activation: RAT, LIVER, S-9, AROCLOR 1254, Method: STANDARD PLATE
[3] = Test System: AMES SALMONELLA TYPHIMURIUM, Strain/Indicator: TA100, Metabolic Activation: NONE, Method: STANDARD PLATE
[4] = Test System: AMES SALMONELLA TYPHIMURIUM, Strain/Indicator: TA100, Metabolic Activation: RAT, LIVER, S-9, AROCLOR 1254, Method: STANDARD PLATE
[5] = Test System: AMES SALMONELLA TYPHIMURIUM, Strain/Indicator: TA1535, Metabolic Activation: NONE, Method: STANDARD PLATE
[6] = Test System: AMES SALMONELLA TYPHIMURIUM, Strain/Indicator: TA1535, Metabolic Activation: RAT, LIVER, S-9, AROCLOR 1254, Method: STANDARD PLATE
[7] = Test System: AMES SALMONELLA TYPHIMURIUM, Strain/Indicator: TA1537, Metabolic Activation: NONE, Method: STANDARD PLATE
[8] = Test System: AMES SALMONELLA TYPHIMURIUM, Strain/Indicator: TA1537, Metabolic Activation: RAT, LIVER, S-9, AROCLOR 1254, Method: STANDARD PLATE
[9] = Test System: AMES SALMONELLA TYPHIMURIUM, Strain/Indicator: TA1538, Metabolic Activation: NONE, Method: STANDARD PLATE
[10] = Test System: AMES SALMONELLA TYPHIMURIUM, Strain/Indicator: TA1538, Metabolic Activation: RAT, LIVER, S-9, AROCLOR 1254, Method: STANDARD PLATE

With O=C(C(=O)c1ccccc1)c1ccccc1 as the compound, how does the mutagenic call (Test System: AMES SALMONELLA TYPHIMURIUM, Strain/Indicator: TA98, Metabolic Activation: HAMSTER, LIVER, S-9, AROCLOR 1254, Method: STANDARD PLATE) read?
Its mutagenic call is “inactive; negative”.

What about the mutagenic call [1] of the same compound?
The mutagenic call was “inactive; negative”.

What about the mutagenic call [2] of the same compound?
Its mutagenic call is “inactive; negative”.

What about the mutagenic call (Test System: AMES SALMONELLA TYPHIMURIUM, Strain/Indicator: TA100, Metabolic Activation: HAMSTER, LIVER, S-9, AROCLOR 1254, Method: STANDARD PLATE) of the same compound?
Its mutagenic call is “inactive; negative”.

And the mutagenic call [3]?
The mutagenic call was “inactive; negative”.

What about the mutagenic call [4] of the same compound?
The mutagenic call was “inactive; negative”.

What about the mutagenic call (Test System: AMES SALMONELLA TYPHIMURIUM, Strain/Indicator: TA1535, Metabolic Activation: HAMSTER, LIVER, S-9, AROCLOR 1254, Method: STANDARD PLATE) of the same compound?
Its mutagenic call is “inactive; negative”.

And the mutagenic call [5]?
The mutagenic call was “inactive; negative”.

What about the mutagenic call [6] of the same compound?
Its mutagenic call is “inactive; negative”.

And the mutagenic call (Test System: AMES SALMONELLA TYPHIMURIUM, Strain/Indicator: TA1537, Metabolic Activation: HAMSTER, LIVER, S-9, AROCLOR 1254, Method: STANDARD PLATE)?
The mutagenic call was “inactive; negative”.

What about the mutagenic call [7] of the same compound?
Its mutagenic call is “inactive; negative”.

And the mutagenic call [8]?
The mutagenic call was “inactive; negative”.

And the mutagenic call (Test System: AMES SALMONELLA TYPHIMURIUM, Strain/Indicator: TA1538, Metabolic Activation: HAMSTER, LIVER, S-9, AROCLOR 1254, Method: STANDARD PLATE)?
The mutagenic call was “inactive; negative”.

What about the mutagenic call [9] of the same compound?
Its mutagenic call is “inactive; negative”.

And the mutagenic call [10]?
The mutagenic call was “inactive; negative”.

What about the mutagenic call (Test System: Mouse lymphoma, Strain/Indicator: L5178Y (tk+/tk-), Metabolic Activation: None, Method: Suspension/plate) of the same compound?
Its mutagenic call is “inactive; inconclusive (previous evaluation negative)”.

What about the mutagenic call (Test System: Mouse lymphoma, Strain/Indicator: L5178Y (tk+/tk-), Metabolic Activation: Rat, Liver, S-9, Aroclor 1254, Method: Suspension/plate) of the same compound?
The mutagenic call was “inactive; negative”.

What does the source list for C[n+]1ccn(COCCC(C)(C)[N+](=O)[O-])c1/C=N/O?
mutagenic call (Test System: AMES SALMONELLA TYPHIMURIUM, Strain/Indicator: TA97, Metabolic Activation: NONE, Method: STANDARD PLATE): inactive; negative; mutagenic call (Test System: AMES SALMONELLA TYPHIMURIUM, Strain/Indicator: TA97, Metabolic Activation: S-9, Method: STANDARD PLATE): inactive; negative; mutagenic call [1]: inactive; negative; mutagenic call (Test System: AMES SALMONELLA TYPHIMURIUM, Strain/Indicator: TA98, Metabolic Activation: S-9, Method: STANDARD PLATE): inactive; negative; mutagenic call [3]: inactive; negative; mutagenic call (Test System: AMES SALMONELLA TYPHIMURIUM, Strain/Indicator: TA100, Metabolic Activation: S-9, Method: STANDARD PLATE): inactive; negative; mutagenic call (Test System: AMES SALMONELLA TYPHIMURIUM, Strain/Indicator: TA104, Metabolic Activation: NONE, Method: STANDARD PLATE): inactive; negative; mutagenic call (Test System: AMES SALMONELLA TYPHIMURIUM, Strain/Indicator: TA104, Metabolic Activation: S-9, Method: STANDARD PLATE): inactive; negative; mutagenic call [5]: inactive; negative; mutagenic call (Test System: AMES SALMONELLA TYPHIMURIUM, Strain/Indicator: TA1535, Metabolic Activation: S-9, Method: STANDARD PLATE): inactive; negative; mutagenic call [7]: inactive; negative; mutagenic call (Test System: AMES SALMONELLA TYPHIMURIUM, Strain/Indicator: TA1537, Metabolic Activation: S-9, Method: STANDARD PLATE): inactive; negative; mutagenic call [9]: inactive; negative; mutagenic call (Test System: AMES SALMONELLA TYPHIMURIUM, Strain/Indicator: TA1538, Metabolic Activation: S-9, Method: STANDARD PLATE): inactive; negative

With OC[C@H]1O[C@@H](n2cnc3c(NO)ncnc32)[C@H](O)[C@@H]1O as the compound, how does the mutagenic call [1] read?
Its mutagenic call is “active; positive”.

And the mutagenic call (Test System: AMES SALMONELLA TYPHIMURIUM, Strain/Indicator: TA100(TN5-1,8-DNP1011), Metabolic Activation: NONE, Method: STANDARD PLATE)?
Its mutagenic call is “active; positive”.

And the mutagenic call (Test System: AMES SALMONELLA TYPHIMURIUM, Strain/Indicator: TA100(TN5-1,8-DNP1012), Metabolic Activation: NONE, Method: STANDARD PLATE)?
The mutagenic call was “active; positive”.

What about the mutagenic call [3] of the same compound?
Its mutagenic call is “active; positive”.

And the mutagenic call (Test System: AMES SALMONELLA TYPHIMURIUM, Strain/Indicator: TA102, Metabolic Activation: NONE, Method: STANDARD PLATE)?
Its mutagenic call is “inactive; negative”.

What does the source list for Oc1ccc(O)c2c(O)c3ccccc3c(O)c12?
mutagenic call [1]: inactive; negative; mutagenic call [2]: inactive; negative; mutagenic call [3]: inactive; negative; mutagenic call [4]: inactive; negative; mutagenic call [5]: inactive; negative; mutagenic call [6]: inactive; negative; mutagenic call [7]: active; positive; mutagenic call [8]: active; positive; mutagenic call [10]: inactive; negative

Which mutagenic call (Test System: AMES SALMONELLA TYPHIMURIUM, Strain/Indicator: TA98, Metabolic Activation: NONE, Method: PREINCUBATION) does the source give for CCCCCNC(=O)/C=C/c1ccc([N+](=O)[O-])o1 here?
Its mutagenic call is “active; positive”.

How did the mutagenic call [4] turn out when O[C@H]1C=Cc2c(ccc3ncccc23)[C@@H]1O was run?
The mutagenic call was “inactive; negative”.
